Measurements as given in patent publication US20240384350A1, “METHODS OF TREATING CANCER WITH KINASE INHIBITORS” (BOARD OF REGENTS, THE UNIVERSITY OF TEXAS SYSTEM, priority 2021, published 2024).

Tests used:
Assay in all cases: Ba/F3 drug screening, Cell Titer Glo, IC50 Mut/WT
Type in all cases: cell-based
[1] = molecular target: T1, EGFR L833V (Homo sapiens, UniProt P00533, L833V); conditions: Classical-Like, 72 hours
T1 construct: expressed in transfected cells; host or cells: Ba/F3 cells, retroviral pBabe-Puro vector

[2] = molecular target: T2, EGFR V769L (Homo sapiens, UniProt P00533, V769L); conditions: Ba/F3 cells, EGFR V769L (PACC), Mut/WT
T2 construct: expressed in transfected cells; host or cells: Ba/F3

[3] = molecular target: T3, EGFR S768I/T790M (Homo sapiens, UniProt P00533, S768I/T790M); conditions: T790M-like-3S, 72 hours
T3 construct: expressed in transfected cells; host or cells: Ba/F3

[4] = molecular target: T4, EGFR Ex19del L718V (Homo sapiens, UniProt P00533, DEL746-750/L718V); conditions: Ba/F3 cells, EGFR Ex19del L718V (PACC), Mut/WT
T4 construct: expressed in transfected cells; host or cells: Ba/F3
Description: (§1) Data represent the ratio of the IC50 value for a given TKI for cells with a PACC EGFR mutation to the IC50 value for cells with wildtype EGFR.
(§2) Ba/F3 cell generation, drug screening, and IC50 approximations. Ba/F3 cells were obtained as a gift from Dr. Gordon Mills (MD Anderson Cancer Center), and maintained in RPMI (Sigma) containing 10% FBS, 1% penicillin/streptomycin, and 10 ng/ml recombinant mIL-3 (R&D Biosystems). To establish stable Ba/F3 cell lines, Ba/F3 cells were transduced with retroviruses containing mutant EGFR plasmids for 12-24 hours.
(§3) After 48-72 hours of transduction, 2 μg/ml puromycin (Invitrogen) was added to Ba/F3 cell lines in complete RPMI. To select for EGFR positive cell lines, cells were stained with PE-EGFR (Biolegend) and sorted by FACS. After sorting, EGFR positive cells were maintained in RPMI containing 10% FBS, 1% penicillin/streptomycin, and 1 ng/ml EGF to support cell viability. Drug screening was performed as previously described^41,42. Shortly, cells were plated in 384-well plates (Greiner Bio-One) at 2000-3000 cells per well in technical triplicate. Seven different concentrations of TKIs or DMSO vehicle were added to reach a final volume of 40 μL per well. After 72 hours, 11 μL of Cell Titer Glo (Promega) was added to each well. Plates were incubated for a minimum of 10 minutes, and bioluminescence was determined using a FLUOstar OPTIMA plate reader (BMG LABTECH). Raw bioluminescence values were normalized to DMSO control treated cells, and values were plotted in GraphPad Prism. […] Drug screens were performed in technical triplicate on each plate and either duplicate or triplicate biological replicates.

[5] = molecular target: T5, EGFR G724S T790M (Homo sapiens, UniProt P00533, G724S/T790M); conditions: T790M-like-3R, 72 hours
T5 construct: expressed in transfected cells; host or cells: Ba/F3
Description: (§4) Data represent the ratio of the IC50 value for a given TKI for cells with a T790M-like-3R EGFR mutation to the IC50 value for cells with wildtype EGFR.
as §2
(§5) After 48-72 hours of transduction, 2 μg/ml puromycin (Invitrogen) was added to Ba/F3 cell lines in complete RPMI. To select for EGFR positive cell lines, cells were stained with PE-EGFR (Biolegend) and sorted by FACS. After sorting, EGFR positive cells were maintained in RPMI containing 10% FBS, 1% penicillin/streptomycin, and 1 ng/ml EGF to support cell viability. […] Shortly, cells were plated in 384-well plates (Greiner Bio-One) at 2000-3000 cells per well in technical triplicate. Seven different concentrations of TKIs or DMSO vehicle were added to reach a final volume of 40 μL per well. After 72 hours, 11 μL of Cell Titer Glo (Promega) was added to each well. Plates were incubated for a minimum of 10 minutes, and bioluminescence was determined using a FLUOstar OPTIMA plate reader (BMG LABTECH). Raw bioluminescence values were normalized to DMSO control treated cells, and values were plotted in GraphPad Prism. […] Drug screens were performed in technical triplicate on each plate and either duplicate or triplicate biological replicates. […] Statistical differences between groups were determined by ANOVA as described in the figure legends.

[6] = molecular target: T6, EGFR A763insLQEA (Homo sapiens, UniProt P00533, INS763LQEA); conditions: Classical-Like, 72 hours
T6 construct: expressed in transfected cells; host or cells: Ba/F3 cells, retroviral pBabe-Puro vector

[7] = molecular target: T7, EGFR K754E (Homo sapiens, UniProt P00533, K754E); conditions: Classical-Like, 72 hours
T7 construct: expressed in transfected cells; host or cells: Ba/F3 cells, retroviral pBabe-Puro vector
Description: (§6) Data represent the ratio of the IC50 value for a given TKI for cells with a classical-like EGFR mutation to the IC50 value for cells with wildtype EGFR.
as §2
(§7) After 48-72 hours of transduction, 2 μg/ml puromycin (Invitrogen) was added to Ba/F3 cell lines in complete RPMI. To select for EGFR positive cell lines, cells were stained with PE-EGFR (Biolegend) and sorted by FACS. After sorting, EGFR positive cells were maintained in RPMI containing 10% FBS, 1% penicillin/streptomycin, and 1 ng/ml EGF to support cell viability. […] Shortly, cells were plated in 384-well plates (Greiner Bio-One) at 2000-3000 cells per well in technical triplicate. Seven different concentrations of TKIs or DMSO vehicle were added to reach a final volume of 40 μL per well. After 72 hours, 11 μL of Cell Titer Glo (Promega) was added to each well. Plates were incubated for a minimum of 10 minutes, and bioluminescence was determined using a FLUOstar OPTIMA plate reader (BMG LABTECH). Raw bioluminescence values were normalized to DMSO control treated cells, and values were plotted in GraphPad Prism. […] Drug screens were performed in technical triplicate on each plate and either duplicate or triplicate biological replicates.

[8] = molecular target: T8, EGFR Ex19del/T790M/L792H (Homo sapiens, UniProt P00533, DEL746-750/L792H/T790M); conditions: T790M-like-3R, 72 hours
T8 construct: expressed in transfected cells; host or cells: Ba/F3
Description: as §4, §2, §5

[9] = molecular target: T9, EGFR L858R T790M V843I (Homo sapiens, UniProt P00533, L858R/T790M/V843I); conditions: T790M-like-3S, 72 hours
T9 construct: expressed in transfected cells; host or cells: Ba/F3
Description: Data represent the ratio of the IC50 value for a given TKI for cells with a T790M-like-3S EGFR mutation to the IC50 value for cells with wildtype EGFR.
as §2, §3

[10] = molecular target: T10, EGFR D770insNPG (Homo sapiens, UniProt P00533, INS770NPG); conditions: Ex20, 72 hours
T10 construct: expressed in transfected cells; host or cells: Ba/F3 cells, retroviral pBabe-Puro vector

[11] = molecular target: T11, EGFR E709A (Homo sapiens, UniProt P00533, E709A); conditions: Ba/F3 cells, EGFR E709A (PACC), Mut/WT
T11 construct: expressed in transfected cells; host or cells: Ba/F3

[12] = molecular target: T12, EGFR E709A G719S (Homo sapiens, UniProt P00533, E709A/G719S); conditions: Ba/F3 cells, EGFR E709A G719S (PACC), Mut/WT
T12 construct: expressed in transfected cells; host or cells: Ba/F3

[13] = molecular target: T13, EGFR V774M (Homo sapiens, UniProt P00533, V774M); conditions: Ba/F3 cells, EGFR V774M (PACC), Mut/WT
T13 construct: host or cells: Ba/F3

[14] = molecular target: T14, EGFR G719S T790M (Homo sapiens, UniProt P00533, G719S/T790M); conditions: T790M-like-3S, 72 hours
T14 construct: expressed in transfected cells; host or cells: Ba/F3

[15] = molecular target: T15, EGFR A767insASV (Homo sapiens, UniProt P00533, DUP767-769); conditions: Ex20, 72 hours
T15 construct: expressed in transfected cells; host or cells: Ba/F3 cells, retroviral pBabe-Puro vector

[16] = molecular target: T16, EGFR G719A (Homo sapiens, UniProt P00533, G719A); conditions: Ba/F3 cells, EGFR G719A (PACC), Mut/WT
T16 construct: expressed in transfected cells; host or cells: Ba/F3

[17] = molecular target: T17, EGFR S811F (Homo sapiens, UniProt P00533, S811F); conditions: Classical-Like, 72 hours
T17 construct: expressed in transfected cells; host or cells: Ba/F3 cells, retroviral pBabe-Puro vector (vector made by GeneScript from EGFR WT)
Description: as §6, §2, §7

[18] = molecular target: T18, EGFR Ex19del T854I (Homo sapiens, UniProt P00533, DEL746-750/T854I); conditions: Ba/F3 cells, EGFR Ex19del T854I (PACC), Mut/WT
T18 construct: expressed in transfected cells; host or cells: Ba/F3 (retroviral transduction, pBabe-Puro based vectors)
Description: as §1, §2, §3

[19] = molecular target: T19, EGFR L747P (Homo sapiens, UniProt P00533, L747P); conditions: Ba/F3 cells, EGFR L747P (PACC), Mut/WT
T19 construct: expressed in transfected cells; host or cells: Ba/F3
Description: as §1, §2
(§8) After 48-72 hours of transduction, 2 μg/ml puromycin (Invitrogen) was added to Ba/F3 cell lines in complete RPMI. To select for EGFR positive cell lines, cells were stained with PE-EGFR (Biolegend) and sorted by FACS. After sorting, EGFR positive cells were maintained in RPMI containing 10% FBS, 1% penicillin/streptomycin, and 1 ng/ml EGF to support cell viability. Drug screening was performed as previously described^41,42. Shortly, cells were plated in 384-well plates (Greiner Bio-One) at 2000-3000 cells per well in technical triplicate. Seven different concentrations of TKIs or DMSO vehicle were added to reach a final volume of 40 μL per well. After 72 hours, 11 μL of Cell Titer Glo (Promega) was added to each well. Plates were incubated for a minimum of 10 minutes, and bioluminescence was determined using a FLUOstar OPTIMA plate reader (BMG LABTECH). Raw bioluminescence values were normalized to DMSO control treated cells, and values were plotted in GraphPad Prism. […] Drug screens were performed in technical triplicate on each plate and either duplicate or triplicate biological replicates. […] Statistical differences between groups were determined by ANOVA as described in the figure legends.

[20] = molecular target: T20, EGFR S768dupSVD (Homo sapiens, UniProt P00533, DUP768-770); conditions: Ex20, 72 hours
T20 construct: expressed in transfected cells; host or cells: Ba/F3 cells, retroviral pBabe-Puro vector

[21] = molecular target: T21, EGFR D761N (Homo sapiens, UniProt P00533, D761N); conditions: Classical-Like, 72 hours
T21 construct: expressed in transfected cells; host or cells: Ba/F3 cells, retroviral pBabe-Puro vector
Description: as §6, §2, §7

[22] = molecular target: T22, EGFR G724S (Homo sapiens, UniProt P00533, G724S); conditions: Ba/F3 cells, EGFR G724S (PACC), Mut/WT
T22 construct: expressed in transfected cells; host or cells: Ba/F3
Description: as §1, §2, §3

[23] = molecular target: T23, EGFR L858R G724S (Homo sapiens, UniProt P00533, G724S/L858R); conditions: Ba/F3 cells, EGFR L858R G724S (PACC), Mut/WT
T23 construct: expressed in transfected cells; host or cells: Ba/F3 (retroviral transduction, pBabe-Puro based vectors)

[24] = molecular target: T24, EGFR T790M (Homo sapiens, UniProt P00533, T790M); conditions: T790M-like-3S, 72 hours
T24 construct: expressed in transfected cells; host or cells: Ba/F3

[25] = molecular target: T25, EGFR H773insNPH (Homo sapiens, UniProt P00533, INS773NPH); conditions: Ex20, 72 hours
T25 construct: expressed in transfected cells; host or cells: Ba/F3 cells, retroviral pBabe-Puro vector

[26] = molecular target: T26, EGFR Ex19del/L792H (Homo sapiens, UniProt P00533, DEL746-750/L792H); conditions: Ba/F3 cells, EGFR Ex19del/L792H (PACC), Mut/WT
T26 construct: expressed in transfected cells; host or cells: Ba/F3
Description: as §1, §2, §3

[27] = molecular target: T27, EGFR E709K (Homo sapiens, UniProt P00533, E709K); conditions: Ba/F3 cells, EGFR E709K (PACC), Mut/WT
T27 construct: expressed in transfected cells; host or cells: Ba/F3

[28] = molecular target: T28, EGFR N771dupN (Homo sapiens, UniProt P00533, DUP771-771); conditions: Ex20, 72 hours
T28 construct: expressed in transfected cells; host or cells: Ba/F3 cells, retroviral pBabe-Puro vector
Description: Data represent the ratio of the IC50 value for a given TKI for cells with an ex20ins EGFR mutation to the IC50 value for cells with wildtype EGFR.
as §2, §8

C=CC(=O)Nc1cccc(Oc2nc(Nc3ccc(N4CCN(C)CC4)cc3)nc3ccsc23)c1 [Olmutinib]
ratio of IC50 for cells with mutant EGFR to IC50 for cells with wildtype EGFR (Mut/WT) [1]: 0.03803 | ratio of the IC50 value for cells with a PACC EGFR mutation to the IC50 value for cells with wildtype EGFR [2]: 0.3121 | ratio of IC50 for cells with mutant EGFR to IC50 for cells with wildtype EGFR (Mut/WT) [3]: 0.0215 | ratio of the IC50 value for cells with a PACC EGFR mutation to the IC50 value for cells with wildtype EGFR [4]: 0.0862 | ratio of IC50 for cells with mutant EGFR to IC50 for cells with wildtype EGFR (Mut/WT) [5]: 0.01985 | ratio of IC50 for cells with mutant EGFR to IC50 for cells with wildtype EGFR (Mut/WT) [6]: 0.07483 | ratio of IC50 for cells with mutant EGFR to IC50 for cells with wildtype EGFR (Mut/WT) [7]: 0.008838 | ratio of IC50 for cells with mutant EGFR to IC50 for cells with wildtype EGFR (Mut/WT) [8]: 2.218 | ratio of IC50 for cells with mutant EGFR to IC50 for cells with wildtype EGFR (Mut/WT) [9]: 0.000771 | ratio of IC50 for cells with mutant EGFR to IC50 for cells with wildtype EGFR (Mut/WT) [10]: 0.31 | ratio of the IC50 value for cells with a PACC EGFR mutation to the IC50 value for cells with wildtype EGFR [11]: 0.01516 | ratio of the IC50 value for cells with a PACC EGFR mutation to the IC50 value for cells with wildtype EGFR [12]: 0.1443 | ratio of the IC50 value for cells with a PACC EGFR mutation to the IC50 value for cells with wildtype EGFR [13]: 0.06988 | ratio of IC50 for cells with mutant EGFR to IC50 for cells with wildtype EGFR (Mut/WT) [14]: 0.02453 | ratio of IC50 for cells with mutant EGFR to IC50 for cells with wildtype EGFR (Mut/WT) [15]: 0.6792 | ratio of the IC50 value for cells with a PACC EGFR mutation to the IC50 value for cells with wildtype EGFR [16]: 0.141 | ratio of IC50 for cells with mutant EGFR to IC50 for cells with wildtype EGFR (Mut/WT) [17]: 0.0307 | ratio of the IC50 value for cells with a PACC EGFR mutation to the IC50 value for cells with wildtype EGFR [18]: 1.31 | ratio of the IC50 value for cells with a PACC EGFR mutation to the IC50 value for cells with wildtype EGFR [19]: 0.3924 | ratio of IC50 for cells with mutant EGFR to IC50 for cells with wildtype EGFR (Mut/WT) [20]: 0.5533 | ratio of IC50 for cells with mutant EGFR to IC50 for cells with wildtype EGFR (Mut/WT) [21]: 0.1654 | ratio of the IC50 value for cells with a PACC EGFR mutation to the IC50 value for cells with wildtype EGFR [22]: 0.1827 | ratio of the IC50 value for cells with a PACC EGFR mutation to the IC50 value for cells with wildtype EGFR [23]: 0.02052 | ratio of IC50 for cells with mutant EGFR to IC50 for cells with wildtype EGFR (Mut/WT) [24]: 0.04611 | ratio of IC50 for cells with mutant EGFR to IC50 for cells with wildtype EGFR (Mut/WT) [25]: 0.4274 | ratio of the IC50 value for cells with a PACC EGFR mutation to the IC50 value for cells with wildtype EGFR [26]: 0.01923 | ratio of the IC50 value for cells with a PACC EGFR mutation to the IC50 value for cells with wildtype EGFR [27]: 0.05562 | ratio of IC50 for cells with mutant EGFR to IC50 for cells with wildtype EGFR (Mut/WT) [28]: 0.4208

C=CC(=O)Nc1cc(Nc2nccc(-n3cc(CN(C)C)c(-c4ccccc4)n3)n2)c(OC)cc1N1CCOCC1 [Lazertinib]
ratio of IC50 for cells with mutant EGFR to IC50 for cells with wildtype EGFR (Mut/WT) [1]: 0.006132 | ratio of the IC50 value for cells with a PACC EGFR mutation to the IC50 value for cells with wildtype EGFR [2]: 1.618 | ratio of IC50 for cells with mutant EGFR to IC50 for cells with wildtype EGFR (Mut/WT) [3]: 0.5236 | ratio of the IC50 value for cells with a PACC EGFR mutation to the IC50 value for cells with wildtype EGFR [4]: 0.04944 | ratio of IC50 for cells with mutant EGFR to IC50 for cells with wildtype EGFR (Mut/WT) [5]: 26.17 | ratio of IC50 for cells with mutant EGFR to IC50 for cells with wildtype EGFR (Mut/WT) [6]: 0.1304 | ratio of IC50 for cells with mutant EGFR to IC50 for cells with wildtype EGFR (Mut/WT) [7]: 0.1385 | ratio of IC50 for cells with mutant EGFR to IC50 for cells with wildtype EGFR (Mut/WT) [8]: 1.105 | ratio of IC50 for cells with mutant EGFR to IC50 for cells with wildtype EGFR (Mut/WT) [9]: 0.06612 | ratio of IC50 for cells with mutant EGFR to IC50 for cells with wildtype EGFR (Mut/WT) [10]: 4.93 | ratio of the IC50 value for cells with a PACC EGFR mutation to the IC50 value for cells with wildtype EGFR [11]: 0.2759 | ratio of the IC50 value for cells with a PACC EGFR mutation to the IC50 value for cells with wildtype EGFR [12]: 0.06878 | ratio of the IC50 value for cells with a PACC EGFR mutation to the IC50 value for cells with wildtype EGFR [13]: 0.9635 | ratio of IC50 for cells with mutant EGFR to IC50 for cells with wildtype EGFR (Mut/WT) [14]: 0.003464 | ratio of IC50 for cells with mutant EGFR to IC50 for cells with wildtype EGFR (Mut/WT) [15]: 10.93 | ratio of the IC50 value for cells with a PACC EGFR mutation to the IC50 value for cells with wildtype EGFR [16]: 0.362 | ratio of IC50 for cells with mutant EGFR to IC50 for cells with wildtype EGFR (Mut/WT) [17]: 0.01158 | ratio of the IC50 value for cells with a PACC EGFR mutation to the IC50 value for cells with wildtype EGFR [18]: 1.44 | ratio of the IC50 value for cells with a PACC EGFR mutation to the IC50 value for cells with wildtype EGFR [19]: 2.92 | ratio of IC50 for cells with mutant EGFR to IC50 for cells with wildtype EGFR (Mut/WT) [20]: 4.027 | ratio of IC50 for cells with mutant EGFR to IC50 for cells with wildtype EGFR (Mut/WT) [21]: 0.01957 | ratio of the IC50 value for cells with a PACC EGFR mutation to the IC50 value for cells with wildtype EGFR [22]: 26.17 | ratio of the IC50 value for cells with a PACC EGFR mutation to the IC50 value for cells with wildtype EGFR [23]: 0.0004647 | ratio of IC50 for cells with mutant EGFR to IC50 for cells with wildtype EGFR (Mut/WT) [24]: 0.2517 | ratio of IC50 for cells with mutant EGFR to IC50 for cells with wildtype EGFR (Mut/WT) [25]: 5.102 | ratio of the IC50 value for cells with a PACC EGFR mutation to the IC50 value for cells with wildtype EGFR [26]: 0.001792 | ratio of the IC50 value for cells with a PACC EGFR mutation to the IC50 value for cells with wildtype EGFR [27]: 0.2612
